Assay results: patent publication US8669072B2, “Oxadiazoline ligands for modulating the expression of exogenous genes via an ecdysone receptor complex” (Intrexon Corporation, priority 2003, dated 2014)
Read-outs that look alike come from different tables or passages of the source.

Tests used:
[1] = target: T1, GAL4 DBD (1-147)-CfEcR(DEF)/VP16AD-βRXREF-LmUSPEF (Choristoneura fumiferana, UniProt O77240); test: cell-based; details: for fold induction at 33.3 µM: 48 h, read-out: Fold Induction Average, 27-63 assay; for Rel Max FI, 27-63 assay: maximum fold induction relative to that of GS-E ligand
T1 construct: The wild-type D, E, and F domains from spruce budworm Choristoneura fumiferana EcR (“CfEcR-DEF”)
Description: Stably transfected cells were selected by Zeocin resistance. Individually isolated CHO cell clones were transiently transfected with a GAL4 RE-luciferase reporter (pFR Luc). 27-63 clone was selected using Hygromycin.
(§1) Cells were trypsinized and diluted to a concentration of 2.5×10^4 cells mL. 100 μL of cell suspension was placed in each well of a 96 well plate and incubated at 37° C. under 5% CO2 for 24 h. Ligand stock solutions were prepared in DMSO and diluted 300 fold for all treatments.
(§2) Luciferase reporter gene expression was measured 48 h after cell treatment using Bright-Glo™ Luciferase Assay System from Promega (E2650). Luminescence was detected at room temperature using a Dynex MLX microtiter plate luminometer.
(§3) Each assay was conducted in two separate wells, and the two values were averaged. Fold inductions were calculated by dividing relative light units (“RLU”) in ligand treated cells with RLU in DMSO treated cells. EC50s were calculated from dose response data using a three-parameter logistic model.

[2] = target: T2, Bombyx mori EcR (VBE) (Bombyx mori, UniProt P49881); test: Z3 assay: β-galactosidase reporter gene induction in HEK-293 clone Z3 (CVBE / 6XEcRE LacZ); assay type: cell-based; details: for fold induction at 33 µM: read-out: Fold Induction Average, Z3 assay
T2 construct: expressed in transfected cells; host or cells: Human HEK-293 cells, retrovirally infected, clone Z3
T2 sequence (P49881 86-606 limits assumed): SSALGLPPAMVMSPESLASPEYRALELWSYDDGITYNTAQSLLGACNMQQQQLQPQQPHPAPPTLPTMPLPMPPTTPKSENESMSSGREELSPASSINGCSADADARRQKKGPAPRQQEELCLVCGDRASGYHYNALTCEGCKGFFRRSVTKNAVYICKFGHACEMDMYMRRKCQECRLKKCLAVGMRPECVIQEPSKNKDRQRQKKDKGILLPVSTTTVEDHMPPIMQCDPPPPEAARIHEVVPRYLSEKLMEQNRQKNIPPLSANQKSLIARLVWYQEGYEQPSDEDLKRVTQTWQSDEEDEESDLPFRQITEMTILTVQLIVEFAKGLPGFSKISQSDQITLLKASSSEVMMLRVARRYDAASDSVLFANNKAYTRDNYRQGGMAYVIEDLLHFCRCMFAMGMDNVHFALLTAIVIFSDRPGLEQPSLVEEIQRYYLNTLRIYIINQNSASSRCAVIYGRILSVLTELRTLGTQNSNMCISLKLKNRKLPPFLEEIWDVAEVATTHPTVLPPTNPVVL
T2 sequence (P19793 1-462 partner): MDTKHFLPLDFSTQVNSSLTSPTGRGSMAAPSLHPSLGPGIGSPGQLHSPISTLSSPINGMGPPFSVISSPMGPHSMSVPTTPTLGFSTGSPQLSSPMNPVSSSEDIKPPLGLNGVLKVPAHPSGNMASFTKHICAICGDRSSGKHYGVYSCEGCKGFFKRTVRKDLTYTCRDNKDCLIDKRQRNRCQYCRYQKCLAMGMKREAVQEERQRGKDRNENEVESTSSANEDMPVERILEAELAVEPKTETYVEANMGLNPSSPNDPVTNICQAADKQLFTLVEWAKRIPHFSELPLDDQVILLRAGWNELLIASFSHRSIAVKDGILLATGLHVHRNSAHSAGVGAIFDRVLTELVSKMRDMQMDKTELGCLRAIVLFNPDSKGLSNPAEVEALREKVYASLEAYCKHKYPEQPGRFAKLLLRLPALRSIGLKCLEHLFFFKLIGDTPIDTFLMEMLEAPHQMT
Description: A synthetic ATG start codon was placed under the control of cytomegalovirus (CVBE) immediate early promoter and flanked by long terminal repeats (LTR). The reporter construct contained six copies of the ecdysone response element (EcRE) binding site placed upstream of LacZ and flanked on both sides with LTR sequences (6×EcRE).
Dilution cloning was used to isolate individual clones. Clones were selected using 450 ug/mL G418 and 100 ng/mL puromycin. Individual clones were evaluated based on their response in the presence and absence of test ligands.
Z3 cells were seeded into 96-well tissue culture plates at a concentration of 2.5×10^3 cells per well and incubated at 37° C. in 5% CO2 for twenty-four hours. Stock solutions of ligands were prepared in DMSO. […] The final concentration of DMSO was maintained at 0.03% in both controls and treatments.
Reporter gene expression was evaluated 48 hours after treatment of cells, β-galactosidase activity was measured using Gal Screen™ bioluminescent reporter gene assay system from Tropix (GSY1000). Fold induction activities were calculated by dividing relative light units (“RLU”) in ligand treated cells with RLU in DMSO treated cells. Luminescence was detected at room temperature using a Dynex MLX microtiter plate luminometer.
as §3

[3] = target: T3, GAL4 DBD-CfEcR(DEF)/VP16AD-MmRXRE (Choristoneura fumiferana, UniProt O77240); test: 13B3 assay: luciferase reporter gene induction in stable CHO clone 13B3; assay type: cell-based; details: for fold induction at 33.3 µM / Fold Induction Average, 13B3 assay: 48 h; for fold induction at 33.3 µM: read-out: Fold Induction Average, 13B3 assay
T3 construct: The wild-type D, E, and F domains from spruce budworm Choristoneura fumiferana EcR (“CfEcR-DEF”)
Description: CHO cells were transiently transfected with transcription cassettes for GAL4 DBD-CfEcR(DEF) and for VP16AD-MmRXRF controlled by SV40e promoters. Stably transfected cells were selected using Hygromycin. Individually isolated CHO cell clones were transiently transfected with a GAL4 RE-luciferase reporter (pFR-Luc, Stratagene, La Jolla, Calif.). The 13B3 clone was selected using Zeocin.
as §1, §2, §3

[4] = HEK293, 33 μM ligand, 48 h, RLU relative to DMSO
[5] = 33/33.3 μM ligand, RLU relative to DMSO
[6] = maximum fold induction relative to that of GS-E ligand
[7] = 33 μM ligand, 48 h, RLU relative to DMSO

Row | SMILES | EC50 [1] | fold induction at 33.3 µM [1] | Rel Max FI, 27-63 assay [1] | fold induction at 33 µM [2, 4] | fold induction at 33.3 µM [3, 5] | Fold Induction Average, Z3 assay [2, 7] | Fold Induction Average, 13B3 assay [3, 5] | also measured
1 | Cc1cc(C)cc(C2=NOC(C)(C)N2NC(=O)c2cccc(F)c2)c1 [RG-120002] | > 33 µM | 5.7 | 0 | 3.9 | 0.2 |  |  | 
2 | CCc1c(OC)cccc1C(=O)NN1C(c2ccccc2OC)=NOC1(C)C [RG-120016] | ~20 µM | 1150 | 0.71 | 227 | 4.4 |  |  | 
3 | Cc1cc(C)cc(C2=NOC(C)(C)N2NC(=O)c2ccc(Cl)cc2)c1 [RG-120024] | > 33 µM | 6.3 | 0 | 3.8 | 2.1 |  |  | 
4 | COc1cccc(C(=O)NN2C(c3cc(C)cc(C)c3)=NOC23CCc2ccccc2C3)c1C (centres unmarked) [RG-120037, N-[3-(3,5-Dimethyl-phenyl)-1-oxa-2,4-diaza-spiro[4.5]-7,8-benzo-dec-2-en-4-yl]-3-methoxy-2-methyl-benzamide] | > 33 µM | 0.4 | 0 | 0.5 | 0.3 |  |  | 
5 | CCc1ccc(C(=O)NN2C(c3cc(C)cc(C)c3)=NOC23CCCC3)cc1 [RG-120040] | ~20 µM | 242 | 0.13 | 202 | 174 |  |  | 
6 | COc1cccc(C(=O)NN2C(c3cc(C)cc(C)c3)=NOC2(C)C)c1C [RG-120045, N-[3-(3,5-Dimethyl-phenyl)-5,5-dimethyl-[1,2,4]oxadiazol-4-yl]-3-methoxy-2-methyl-benzamide] | ~20 µM | 2710 | 1.25 | 276 | 1410 |  |  | 
7 | CCc1c(OC)cccc1C(=O)NN1C(c2cc(C)cc(C)c2)=NOC12CCCC2 [RG-120049] | 3.42 µM | 2070 | 1.58 | 310 | 2660 |  |  | EC50 [2]: 1.6 µM; Rel Max FI, Z3 assay [2, 6]: 0.88; EC50 [3]: 3.57 µM; Rel Max FI, 13B3 assay [3, 6]: 1.56
8 | CCc1ccc(C(=O)NN2C(c3ccc(OC(F)(F)F)cc3)=NOC2(C)C)cc1 [RG-120055] | > 33 µM | 0.5 | 0 | 0.2 | 0.7 |  |  | 
9 | CCc1c(OC)cccc1C(=O)NN1C(c2ccc(OC)cc2OC)=NOC1(C)C [RG-120058] | > 33 µM | 0.3 | 0 | 1.7 | 0.3 |  |  | 
10 | CCc1ccc(C(=O)NN2C(c3ccc4c(c3)OCO4)=NOC2(C)C)cc1 [RG-120061] | > 33 µM | 0.9 | 0 | 0.6 | 0.4 |  |  | 
11 | CCc1ccc(C(=O)NN2C(c3ccccc3)=NOC2(C)C)cc1 [RG-120115] | > 33 µM |  | 0 |  |  |  |  | fold induction at 33 µM ([2]; HEK293, 48 h): 9.1; fold induction at 33.3 µM [3]: 0.8
12 | CCC1(C)ON=C(c2ccccc2)N1NC(=O)c1ccccc1 (centres unmarked) [RG-120118] | > 33 µM | 13.4 | 0 | 1.4 | 0.8 |  |  | 
13 | CCc1ccc(C(=O)NN2C(c3ccccc3)=NOC23CCOCC3)cc1 [RG-120124] | > 33 µM | 1 | 0 | 2 | 1.2 |  |  | 
14 | CCc1ccc(C(=O)NN2C(c3ccc(OC)cc3OC)=NOC2(C)C)cc1 [RG-120135] | > 33 µM | 0.7 | 0 | 0.7 | 0.4 |  |  | 
15 | CC1(C)ON=C(c2ccc3c(c2)OCO3)N1NC(=O)c1ccco1 [RG-120149] |  |  |  |  |  | 0.7 | 1.1 | 
16 | CC1(C)ON=C(c2ccc(Cl)cc2)N1NC(=O)c1ccccc1 [RG-120151] |  |  |  |  |  | 0.8 | 0.3 | 
17 | CCOC(=O)CCC(=O)NN1C(c2cccc(C(F)(F)F)c2)=NOC1(C)C [RG-120153] |  |  |  |  |  | 0.7 | 0.8 | 
18 | CC1(C)ON=C(c2ccc3c(c2)OCO3)N1NC(=O)c1ccccc1 [RG-120156] |  |  |  |  |  | 0.7 | 1.4 | 
19 | CC1(C)ON=C(c2ccc(OC(F)(F)F)cc2)N1NC(=O)Cc1ccccc1 [RG-120160] |  |  |  |  |  | 0.6 | 0.3 | 
20 | CC1(C)ON=C(c2ccc(Cl)cc2)N1NC(=O)COc1ccccc1 [RG-120162] |  |  |  |  |  | 0.7 | 0.9 | 
21 | CC1(C)ON=C(c2cccc(C(F)(F)F)c2)N1NC(=O)COc1ccccc1 [RG-120163] |  |  |  |  |  | 0.5 | 1.1 | 
22 | CCOC(=O)CCC(=O)NN1C(c2ccc(Cl)cc2)=NOC1(C)C [RG-120164] |  |  |  |  |  | 0.6 | 1.7 | 
